The supplement of paper PMC10883282
± gives the standard deviation of the averaged measurements.

What was measured:
Test in all cases: relative viability vs DMSO control (72 h) (fraction); higher = more viable cells
A204 = test system: A204
Method in brief: (§1)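 Relative viability was measured with ATPLite and expressed as percent growth, averaged across up to triplicate wells. Sarcoma cell lines had been seeded in 384-well plates to reach 80–90% confluence, dosed after 24 h, and incubated 72 h at 37 °C, 5% CO2. All data were rescaled on a scale where 1 is full and 0 is none.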

G401 = test system: G401
Method in brief: as §1

HS729 = test system: HS729
Method in brief: as §1

KHOS-240S = test system: KHOS-240S
Method in brief: as §1

MES-SA = test system: MES-SA
Method in brief: as §1

SK-ES-1 = test system: SK-ES-1
Method in brief: as §1

SK-LMS-1 = test system: SK-LMS-1
Method in brief: as §1

SW1353 = test system: SW1353
Method in brief: as §1

SW684 = test system: SW684
Method in brief: as §1

SW872 = test system: SW872
Method in brief: as §1

SW982 = test system: SW982
Method in brief: as §1

SYO-1 = test system: SYO-1
Method in brief: as §1

CCOc1cc2ncc(C#N)c(Nc3ccc(OCc4ccccn4)c(Cl)c3)c2cc1NC(=O)/C=C/CN(C)C [Neratinib]
Details | relative viability
A204, 0.00017 µM | 1.09 ± 0.013
A204, 0.00051 µM | 1.09 ± 0.013
A204, 0.00152 µM | 1.08 ± 0.021
A204, 0.00457 µM | 1.097 ± 0.0081
A204, 0.01372 µM | 1.03 ± 0.017
A204, 0.04115 µM | 1.06 ± 0.031
A204, 0.1235 µM | 1.01 ± 0.064
A204, 0.3704 µM | 0.665 ± 0.015
A204, 1.111 µM | 0.395 ± 0.026
A204, 3.333 µM | 0.338 ± 0.019
A204, 10 µM | -0.00133 ± 0.0055
G401, 0.00017 µM | 1.02 ± 0.021
G401, 0.00051 µM | 1 ± 0.035
G401, 0.00152 µM | 0.998 ± 0.019
G401, 0.00457 µM | 0.992 ± 0.015
G401, 0.01372 µM | 1 ± 0.025
G401, 0.04115 µM | 0.95 ± 0.023
G401, 0.1235 µM | 0.93 ± 0.038
G401, 0.3704 µM | 0.791 ± 0.012
G401, 1.111 µM | 0.692 ± 0.026
G401, 3.333 µM | 0.56 ± 0.082
G401, 10 µM | 0.0616 ± 0.05
HS729, 0.00017 µM | 0.944 ± 0.066
HS729, 0.00051 µM | 0.922 ± 0.016
HS729, 0.00152 µM | 0.955 ± 0.079
HS729, 0.00457 µM | 0.905 ± 0.046
HS729, 0.01372 µM | 0.925 ± 0.031
HS729, 0.04115 µM | 0.861 ± 0.032
HS729, 0.1235 µM | 0.771 ± 0.0029
HS729, 0.3704 µM | 0.672 ± 0.017
HS729, 1.111 µM | 0.639 ± 0.016
HS729, 3.333 µM | 0.645 ± 0.029
HS729, 10 µM | 0.00633 ± 0.00032
KHOS-240S, 0.00017 µM | 1.03 ± 0.043
KHOS-240S, 0.00051 µM | 1.06 ± 0.046
KHOS-240S, 0.00152 µM | 1.06 ± 0.058
KHOS-240S, 0.00457 µM | 1.06 ± 0.051
KHOS-240S, 0.01372 µM | 1.05 ± 0.062
KHOS-240S, 0.04115 µM | 1.03 ± 0.08
KHOS-240S, 0.1235 µM | 1 ± 0.053
KHOS-240S, 0.3704 µM | 0.896 ± 0.03
KHOS-240S, 1.111 µM | 0.741 ± 0.039
KHOS-240S, 3.333 µM | 0.618 ± 0.028
KHOS-240S, 10 µM | 0.338 ± 0.26
MES-SA, 0.00017 µM | 0.903 ± 0.041
MES-SA, 0.00051 µM | 0.889 ± 0.029
MES-SA, 0.00152 µM | 0.924 ± 0.02
MES-SA, 0.00457 µM | 0.913 ± 0.03
MES-SA, 0.01372 µM | 0.897 ± 0.025
MES-SA, 0.04115 µM | 0.869 ± 0.036
MES-SA, 0.1235 µM | 0.79 ± 0.011
MES-SA, 0.3704 µM | 0.517 ± 0.034
MES-SA, 1.111 µM | 0.348 ± 0.02
MES-SA, 3.333 µM | 0.282 ± 0.0036
MES-SA, 10 µM | 0.0189 ± 0.023
SK-ES-1, 0.00017 µM | 1.05 ± 0.033
SK-ES-1, 0.00051 µM | 1.02 ± 0.044
SK-ES-1, 0.00152 µM | 1.04 ± 0.023
SK-ES-1, 0.00457 µM | 1.01 ± 0.03
SK-ES-1, 0.01372 µM | 1.01 ± 0.08
SK-ES-1, 0.04115 µM | 0.963 ± 0.043
SK-ES-1, 0.1235 µM | 0.797 ± 0.017
SK-ES-1, 0.3704 µM | 0.397 ± 0.031
SK-ES-1, 1.111 µM | 0.298 ± 0.011
SK-ES-1, 3.333 µM | 0.235 ± 0.0077
SK-ES-1, 10 µM | 0.00187 ± 0.00038
SK-LMS-1, 0.00017 µM | 1.03 ± 0.041
SK-LMS-1, 0.00051 µM | 1 ± 0.017
SK-LMS-1, 0.00152 µM | 1.06 ± 0.016
SK-LMS-1, 0.00457 µM | 1.02 ± 0.021
SK-LMS-1, 0.01372 µM | 1.08 ± 0.025
SK-LMS-1, 0.04115 µM | 1.06 ± 0.02
SK-LMS-1, 0.1235 µM | 0.943 ± 0.019
SK-LMS-1, 0.3704 µM | 0.724 ± 0.0085
SK-LMS-1, 1.111 µM | 0.698 ± 0.026
SK-LMS-1, 3.333 µM | 0.646 ± 0.0067
SK-LMS-1, 10 µM | 0.0104 ± 0.0004
SW684, 0.00017 µM | 1.16 ± 0.039
SW684, 0.00051 µM | 1.1 ± 0.024
SW684, 0.00152 µM | 1.11 ± 0.029
SW684, 0.00457 µM | 1.13 ± 0.054
SW684, 0.01372 µM | 1.16 ± 0.018
SW684, 0.04115 µM | 1.116 ± 0.0094
SW684, 0.1235 µM | 1.06 ± 0.065
SW684, 0.3704 µM | 0.848 ± 0.013
SW684, 1.111 µM | 0.826 ± 0.06
SW684, 3.333 µM | 0.792 ± 0.022
SW684, 10 µM | -0.0161 ± 0.0023
SW872, 0.00017 µM | 1.03 ± 0.089
SW872, 0.00051 µM | 1.02 ± 0.092
SW872, 0.00152 µM | 1.03 ± 0.076
SW872, 0.00457 µM | 1.03 ± 0.06
SW872, 0.01372 µM | 1.01 ± 0.042
SW872, 0.04115 µM | 0.97 ± 0.048
SW872, 0.1235 µM | 0.932 ± 0.036
SW872, 0.3704 µM | 0.76 ± 0.077
SW872, 1.111 µM | 0.609 ± 0.021
SW872, 3.333 µM | 0.492 ± 0.013
SW872, 10 µM | -0.00553 ± 0.0012
SW982, 0.00017 µM | 1.06 ± 0.034
SW982, 0.00051 µM | 1.07 ± 0.026
SW982, 0.00152 µM | 1.05 ± 0.036
SW982, 0.00457 µM | 1.04 ± 0.032
SW982, 0.01372 µM | 1.05 ± 0.028
SW982, 0.04115 µM | 1 ± 0.024
SW982, 0.1235 µM | 0.87 ± 0.015
SW982, 0.3704 µM | 0.483 ± 0.061
SW982, 1.111 µM | 0.379 ± 0.04
SW982, 3.333 µM | 0.215 ± 0.036
SW982, 10 µM | 0.0234 ± 0.03
SW1353, 0.00017 µM | 0.971 ± 0.076
SW1353, 0.00051 µM | 0.955 ± 0.016
SW1353, 0.00152 µM | 0.923 ± 0.02
SW1353, 0.00457 µM | 0.934 ± 0.019
SW1353, 0.01372 µM | 0.899 ± 0.02
SW1353, 0.04115 µM | 0.807 ± 0.035
SW1353, 0.1235 µM | 0.71 ± 0.019
SW1353, 0.3704 µM | 0.568 ± 0.021
SW1353, 1.111 µM | 0.525 ± 0.019
SW1353, 3.333 µM | 0.426 ± 0.091
SW1353, 10 µM | 0.0062 ± 0.0002
SYO-1, 0.00017 µM | 0.957 ± 0.024
SYO-1, 0.00051 µM | 0.955 ± 0.029
SYO-1, 0.00152 µM | 0.938 ± 0.037
SYO-1, 0.00457 µM | 0.932 ± 0.046
SYO-1, 0.01372 µM | 0.931 ± 0.041
SYO-1, 0.04115 µM | 0.917 ± 0.045
SYO-1, 0.1235 µM | 0.875 ± 0.061
SYO-1, 0.3704 µM | 0.716 ± 0.063
SYO-1, 1.111 µM | 0.581 ± 0.028
SYO-1, 3.333 µM | 0.431 ± 0.036
SYO-1, 10 µM | -0.0166 ± 0.0031
